According to US10736877B2, “Tryptamine-based ship inhibitors for the treatment of cancer” (THE RESEARCH FOUNDATION FOR THE STATE UNIVERSITY OF NEW YORK, priority 2015, dated 2020):
“Also recorded” adds a separate entry of the source.

Assays:
SHIP2 = assay: Malachite green phosphatase release assay, SHIP2; type: biochemical, human; conditions: for SHIP2 Inhibition: Malachite green assay at 1mM
Description: Detection of phosphatase enzymatic activity.

SHIP1 = assay: Malachite green phosphatase release assay, SHIP1; conditions: for SHIP1 Inhibition: Malachite green assay at 1mM
Method: Compounds were dissolved in 100% DMSO and then diluted to indicate final concentrations of performed assays (5% DMSO final concentration).
For this purpose, OPM2 cells were lysed in IP-lysis buffer (20 mM Tris, 150 mM NaCl, 1 mM EDTA, 1 mM EGTA, 1% Triton X100, 1 mM PMSF, Halt protease inhibitor), and SHIP1 or OCRL were immuno-precipitated using mouse IgG antibodies from Santa Cruz Biotechnology (Santa Cruz, Calif.). Beads were washed four times with IP lysis buffer and once with TBS/MgCl2 (10 mM) and resuspended in TBS/MgCl2. SHIP inhibitors (200 μM) were added to the beads for 5 minutes, after which immunoprecipitated SHIP1 was incubated in the presence of 100 μM PtdIns(3,4,5)P3 (Echelon Biosciences, Salt Lake City, Utah), whereas immunoprecipitated OCRL was incubated in the presence of 100 μM PtdIns(4,5)P2 for 30 minutes. Malachite green solution was added according to manufacturer's instructions, and the plate was read after 20 minutes.

[1] = test system: MDSC, iTreg cells, nTreg cells, neutrophils; assay: Immune cell numbers and frequencies by flow cytometry in dosed mice; type: in vivo; conditions: 10 mg/kg in 5% DMSO for 6 days
Method: Mice were dosed for 6 days with […]

K562 = assay: Cell growth, K562 leukemia cell line; conditions: K562, increasing concentrations, compared with K103
Method: (§2) Cells were treated in triplicate or more with increasing concentrations of compounds.
(§3) All cell culture media were supplemented with 100 U/mL penicillin, 100 mg/mL streptomycin (Life technologies, Bleiswijk, NL) and 10% Fecal Calf Serum (FCS, Sigma-Aldrich, St. Louis, USA). Cells were maintained at 37° C. in a 5% CO2 humidified setting.

CACO-2 = assay: MTT cell viability assay, CACO-2; type: cell-based; conditions: for cell viability (MTT): CACO-2
HCT116 = assay: MTT cell viability assay, HCT116; type: cell-based; conditions: for cell viability (MTT): HCT116
OPM2 = assay: Cell growth, OPM2 multiple myeloma cell line; conditions: OPM2, increasing concentrations, compared with K103
Method: as §2, §3

[2] = test system: PKB, pS6 and ERK phosphorylation in CACO-2 cells; assay: Western blotting of signaling, CACO-2 cells; type: cell-based, human; conditions: CACO-2, serum starved; K149 10 μM 1 h, LY2940002 20 μM 1 h, EGF 10 ng/mL 15 minutes
Method: (§1) Western blotting. HCT116 and CACO-2 cells were serum starved by incubating for 2 h, after which cells were stimulated for 15 minutes with EGF (10 ng/mL), or stimulated for 1 h with LY2940002 (20 μM) or SHIP2 inhibitor K149 (10 μM). Subsequently, cells were washed with PBS and lysed on ice in 300 μL 2× concentrated Laemmli buffer (100 mM Tris-HCl (pH 6.8), 200 mM dithiothreitol, 4% SDS, 0.1% bromophenol blue, 20% glycerol, and 2% DTT) and boiled for 5 minutes at 95° C. Cell extracts were resolved by SDS-PAGE and transferred to polyvinylidene difluoride membranes (Merck chemicals BV, Amsterdam, the Netherlands). Membranes were blocked in 50% odyssey blocking buffer (LI-COR Biosciences, Lincoln, Nebr.) in PBS/0.05% Tween-20 and incubated overnight at 4° C. with primary antibody. After washing in PBS-T, membranes were incubated with IRDye® antibodies (LI-COR Biosciences, Lincoln, Nebr.) for 1 h. Detection was performed using Odyssey reader and analyzed using manufacturers software.

MDA-MB-231 = assay: Cell growth, MDA-MB-231 breast cancer cell line; conditions: MDA-MB-231, increasing concentrations, compared with K103
Method: as §2, §3

MCF-7 = assay: Cell growth, MCF-7 breast cancer cell line; conditions: MCF-7, increasing concentrations, compared with K103
Method: as §2, §3

[3] = High fat diet (diet-induced obese) mice: weight, bone health, toxicity; conditions: HFD mice, 2× week, i.p., 10 mg/kg, two weeks
[4] = test system: HCT116, RKO, LS-174T, CACO-2 and COLO 320; assay: Cell viability in colorectal cancer cell lines with and without PI3K mutations; conditions: 3 cell lines with PIK3CA mutation, 2 without
Method: Cell lines. […] Colorectal cancer cell lines HCT116 CACO-2, COLO 320, and RKO were cultured in Dulbecco's Modified Eagles Medium (DMEM, Lonza, Basel, Switzerland). […] All cell culture media were supplemented with 100 U/mL penicillin, 100 mg/mL streptomycin (Life technologies, Bleiswijk, NL) and 10% Fecal Calf Serum (FCS, Sigma-Aldrich, St. Louis, USA). Cells were maintained at 37° C. in a 5% CO2 humidified setting.
Cell viability assay. Cell viability was assessed using MTT assays. Cells were incubated with different concentrations of SHIP2 inhibitors, and/or chemotherapeutic agent 5-FU. 24 h, 48 h, 72 h, and 96 h after incubation cells were incubated with 5 mM MTT (3-(4,5-Dimethylthiazol-2-yl)-2,5-diphenyltetrazolium bromide) for 3 h and colorimetric changes were measured using a microplate reader (Model 680XR Bio-Rad) at 490 and 595 nm.

[5] = test system: PKB, pS6 and ERK phosphorylation in HCT116 cells; assay: Western blotting of signaling, HCT116 cells; type: cell-based, human; conditions: HCT116, serum starved; K149 10 μM 1 h, LY2940002 20 μM 1 h, EGF 10 ng/mL 15 minutes
Method: as §1

breast cancer cells = conditions: cited from earlier work

Question: With `Cc1c(CCN)c2cc(Br)ccc2n1Cc1ccccc1Cl.Cl` [Compound K148, 2-[1-(2-chlorobenzyl)-2-methyl-5-(bromo)-1H-3-yl] ethanaminium chloride] as the molecule, how does the “SHIP2 Inhibition” value (SHIP2) read?
Answer: 70%

Question: What about the “SHIP1 Inhibition” value (SHIP1) of the same molecule?
Answer: 77%

Question: What does the source list for `CSc1ccc2c(c1)c(CCN)c(C)n2Cc1ccc(Cl)cc1.Cl` [Compound K160, 2-[1-(4-chlorobenzyl)-2-methyl-5-(methylmercapto)-1H-3-yl] ethanaminium chloride]?
Answer: SHIP2 Inhibition (SHIP2): 61%; melting point: 198 to 209 °C; SHIP1 Inhibition (SHIP1): 78%

Question: What does the source list for `Cc1c(CCN)c2ccccc2n1Cc1ccccc1.Cl` [Compound K123, 2-[1-benzyl-2-methyl-5-1H-3-yl] ethanaminium chloride]?
Answer: melting point: 158 to 161 °C; SHIP1 Inhibition (SHIP1): 15%

Question: For `CSc1ccc2c(c1)c(CCN)c(C)n2Cc1ccc(Cl)cc1Cl.Cl` [Compound K149, 2-[1-(2,4-dichlorobenzyl)-2-methyl-5-(methylmercapto)-1H-3-yl] ethanaminium chloride], which MDSC counts [1] is on record?
Answer: significant increases

Question: And the iTreg cell counts [1]?
Answer: significant increases

Question: And the nTreg cell counts [1]?
Answer: significant increases

Question: What about the neutrophil counts [1] of the same molecule?
Answer: significant increases

Question: And the “control of cancer cell growth” value (K562)?
Answer: more effective at controlling cancer cell growth

Question: What about the “cell viability (MTT)” value (CACO-2) of the same molecule?
Answer: dose-dependent reduction in cell viability; also recorded: more sensitive to the K149 inhibitor; also recorded: dose-dependent cell death

Question: What about the “5-FU-induced cell death with SHIP2 inhibitor co-treatment” value (CACO-2; CACO-2, K149 2 uM with increasing concentrations of 5-FU) of the same molecule?
Answer: sensitizes CRC cells to the 5-FU treatment; also recorded: enhanced

Question: And the “cell viability (MTT)” value (HCT116)?
Answer: dose-dependent reduction in cell viability; also recorded: more sensitive to the K149 inhibitor; also recorded: induced cell death at lower concentrations in HCT116 cells than CACO-2 cells; also recorded: dose-dependent cell death

Question: What about the “5-FU-induced cell death with SHIP2 inhibitor co-treatment” value (HCT116; HCT116, K149 2 uM with increasing concentrations of 5-FU) of the same molecule?
Answer: sensitizes CRC cells to the 5-FU treatment; also recorded: enhanced

Question: What about the “control of cancer cell growth” value (OPM2) of the same molecule?
Answer: more effective at controlling cancer cell growth

Question: And the ERK phosphorylation [2]?
Answer: not affected by either inhibitor; also recorded: affected by neither inhibitor

Question: And the PKB phosphorylation [2]?
Answer: diminished; also recorded: decreased

Question: And the pS6 phosphorylation [2]?
Answer: drastically increased

Question: What about the “control of cancer cell growth” value (MDA-MB-231) of the same molecule?
Answer: more effective at controlling cancer cell growth

Question: And the “effects compared to K103” value (SHIP1; FIG. 1A-C, FIG. 1C is recombinant human tSHIP1)?
Answer: superior effects compared to K103

Question: What about the “SHIP1 Inhibition” value (SHIP1) of the same molecule?
Answer: 81%

Question: And the “control of cancer cell growth” value (MCF-7)?
Answer: more effective at controlling cancer cell growth

Question: What about the “% body weight” value [3] of the same molecule?
Answer: significant reductions

Question: And the total weight [3]?
Answer: significant reductions; also recorded: promotes weight loss

Question: And the toxicity [3]?
Answer: No toxicity was observed

Question: What about the “bone mineral content (BMC)” value ([3]; DEXA) of the same molecule?
Answer: no significant reduction or increase

Question: What about the “bone mineral density (BMD)” value ([3]; DEXA) of the same molecule?
Answer: no significant reduction or increase

Question: And the “sensitivity by PI3K (PIK3CA) mutational status” value [4]?
Answer: no difference in sensitivity to SHIP2 inhibition based on PIK3CA mutational status; also recorded: No relationship between SHIP2 inhibition and PI3K mutational status exists

Question: And the ERK phosphorylation [5]?
Answer: not affected by either inhibitor; also recorded: affected by neither inhibitor

Question: What about the PKB phosphorylation [5] of the same molecule?
Answer: diminished; also recorded: decreased

Question: And the pS6 phosphorylation [5]?
Answer: drastically increased

Question: What does the source list for “EGF: Epidermal Growth Factor, used to stimulate cellular signaling [reference compound]”?
Answer: ERK phosphorylation [2]: increased; PKB phosphorylation [2]: increased; pS6 phosphorylation [2]: increased; ERK phosphorylation [5]: increased; PKB phosphorylation [5]: increased; pS6 phosphorylation [5]: increased

Question: Which results are given for `CSc1ccc2c(c1)c(CCN)c(C)n2Cc1ccccc1.Cl` [Compound K125, 2-[1-benzyl-2-methyl-5-(methylmercapto)-1H-3-yl] ethanaminium chloride]?
Answer: SHIP2 Inhibition (SHIP2): 80%; melting point: 178 to 189 °C; SHIP1 Inhibition (SHIP1): 64%

Question: Which melting point does the source give for `Cc1c(CCN)c2ccccc2n1Cc1ccccc1Cl.Cl` here?
Answer: 161 to 169 °C

Question: Which “cell viability (MTT)” value (CACO-2; hydrochloride) does the source give for `CSc1ccc2c(c1)c(CCN)c(C)n2Cc1ccc(Cl)cc1.Cl` [Compound K103, reference compound] here?
Answer: dose-dependent reduction in cell viability; also recorded: dose-dependent cell death

Question: What about the “cell viability (MTT)” value (HCT116; hydrochloride) of the same molecule?
Answer: dose-dependent reduction in cell viability; also recorded: induced cell death at lower concentrations in HCT116 cells than CACO-2 cells; also recorded: dose-dependent cell death

Question: And the SHIP2 activity (SHIP2; recombinant SHIP2, 500 uM, vs vehicle control (DMSO), FIG. 5)?
Answer: inhibition of the SHIP2 activity

Question: And the “killing breast cancer cells” value (breast cancer cells)?
Answer: effective in killing breast cancer cells

Question: With `Cc1c(CCN)c2ccccc2n1Cc1ccccc1Cl.Cl` [Compound K124, 2-[1-(2-chlorobenzyl)-2-methyl-5-1H-3-yl] ethanaminium chloride] as the molecule, how does the “SHIP2 Inhibition” value (SHIP2) read?
Answer: 70%

Question: And the “SHIP1 Inhibition” value (SHIP1)?
Answer: 62%
